The values that follow come from patent US9908863B2, “Piperidinylcarbazoles” (Merck Patent GmbH, priority 2013, dated 2018).

Structures are written as SMILES.

In one experiment the test system is P. falciparum strain NF54. Kind of experiment: P. falciparum growth assay ([3H] hypoxanthine incorporation). Type of experiment: cell-based. As to conditions: Plasmodium falciparum; P. falciparum NF54 strain, 72 h incubation, [3H]hypoxanthine incorporation; read-out: IC50 NF54. The protocol: • Cultivation of P. falciparum:
P. falciparum strain NF54 was obtained from the Research and Reference Reagent
Resource Center (MR4) (Manassas, Va.). The two strains were maintained in vitro by a modification of the method of Trager and Jensen. Cultures were maintained in A positive (A+) human erythrocytes suspended at 5% hematocrit in complete medium. 5 g albumax II (Gibco-Invitrogen, Cat No#11021037), 2.5 mg gentamicin (Sigma Aldrich), 25 mM HEPES (Invitrogen), 5 mg hypoxanthine (Sigma), and 1 L of RPMI 1640 (Invitrogen, Cat No#11875085). Cultures were grown in 100 mm petri-dishes (BD Falcon) at a volume of 15 mL and were kept in a standard gas environment of 4% CO2 and 3% 02 at temperature 37° C. in a tri-gas incubator (Cat#3131, Thermo Scientific Forma Series II Water Jacketed). Parasite growth and morphology were observed daily using thin smears at 100× (oil immersion) magnification following staining with Geimsa stain. • P. falciparum growth assay:
The protocol assesses the compound efficacy against the growth of P. falciparum in-vitro.
Parasite growth was detected in assay by the traditional [3H] hypoxanthine incorporation assay as previously described by Desjardins and colleagues (Antimicrob. Agents Chemother., 16(6), 710, 1979). To perform the [3H] hypoxanthine incorporation assay, the new antimalarial agents were serially diluted 1:1 into hypoxanthine-free complete medium to a final volume of 100 μL (final antimalarial agent concentration range, 10,000 nM to 4.8 nM may change in special case) in 96 well sterile cell culture plates. […] All cultures used in the study are albumax II adopted. The microtiter plates were incubated in chamber in a standard gas environment at 37° C. for 72 h. After 48 h of incubation and prior to addition of 50 μL (0.5 μCi/well) 3H-Hypoxanthine (specific activity, 20 Ci/mmol, Conc. 1.0 mCi/ml; American Radiolabeled Chemicals, Inc., St. Louis, Mo.), culture growth was assessed by making the smears that ensures the culture has grown in % p and assay plate is further incubated for 24 h. Following the incubation period, the plates were harvested with a FilterMate cell harvester (Perkin Elmer) onto unifilter-96 GF/B plates, washed with distilled water to remove excess radiochemical and plates were kept for drying 37° C. overnight or 60° C. for 1 h. 50 μL of Microscint scintillation cocktail (Microscint-High Efficiency LSC-Cocktail; Perkin Elmer) added in the unifilter-96 GF/B plates and kept for 15-20 min. The plates were counted in a Top Count NXT microplate scintillation and luminescence counter (Perkin Elmer). The mean values for [3H]hypoxanthine incorporation in parasitized control and non-parasitized control erythrocytes were calculated.
Assay data were analyzed using Graph pad prism ver.5 software. A variable sigmoid dose response curve is plotted keeping log concentrations at X-axis and % inhibition at Y-axis.
Consider `CC(C)(C)OC(=O)N1CC[C@@H](O)[C@H](n2c3ccc(F)cc3c3cc(F)ccc32)C1` (racemic) [Compound 44, trans-tert-butyl 3-(3,6-difluoro-9H-carbazol-9-yl)-4-hydroxypiperidine-1-carboxylate], for which the IC50 – broadly, the point on the concentration scale where inhibition reaches its midpoint – amounted to 792 nM. Same read-out and setting: the same measure for `CC(C)(C)OC(=O)N1CC[C@@H](n2c3ccc(F)cc3c3cc(F)ccc32)[C@H](O)C1` (racemic) [Compound 46, trans-tert-butyl 4-(3,6-difluoro-9H-carbazol-9-yl)-3-hydroxypiperidine-1-carboxylate]: 1330 nM. The same measure, in the same setting: the same measure for `O[C@@H]1CCNC[C@H]1n1c2ccc(C(F)(F)F)cc2c2cc(C(F)(F)F)ccc21` (racemic) [Compound 59, trans-3-(3,6-bis(trifluoromethyl)-9H-carbazol-9-yl)piperidin-4-ol]: 1300 nM; for `O[C@@H]1CNCC[C@H]1n1c2ccc(F)cc2c2cc(F)ccc21` (racemic) [Compound 62]: 263 nM; for `O[C@@H]1CNCC[C@H]1n1c2ccc(C(F)(F)F)cc2c2cc(C(F)(F)F)ccc21` (racemic) [Compound 68, trans-4-(3,6-bis(trifluoromethyl)-9H-carbazol-9-yl)piperidin-3-ol]: 22.2 nM. The same measure, in the same setting: the figure for `O[C@@H]1CN(Cc2ccccc2)CC[C@H]1n1c2ccc(F)cc2c2cc(F)ccc21` (relative stereo) [Compound 41, trans-1-benzyl-4-(3,6-difluoro-9H-carbazol-9-yl)piperidin-3-ol] is 280 nM. On to `O[C@@H]1CCN(Cc2ccccc2)C[C@H]1n1c2ccc(F)cc2c2cc(F)ccc21` (relative stereo) [Compound 63, trans-1-benzyl-3-(3,6-difluoro-9H-carbazol-9-yl)piperidin-4-ol], for which the half-inhibitory concentration (IC50) came out at 233 nM. The same measure, in the same setting: the figure for `O[C@H]1CNCC[C@@H]1n1c2ccc(Cl)cc2c2cc(Cl)cnc21` (single isomer, unassigned) [Compound 19] is 93.3 nM. On the same count and under the same terms, the same measure for `O[C@@H]1CNCC[C@H]1n1c2ccc(Cl)cc2c2cc(Cl)cnc21` (single isomer, unassigned) [Compound 20]: 124 nM. The same measure, in the same setting: the same measure for `O[C@@H]1CCN(Cc2ccccc2)C[C@H]1n1c2ccc(F)cc2c2cc(F)ccc21` (single isomer, unassigned) [Compound 42]: 79.8 nM; for `O[C@H]1CCN(Cc2ccccc2)C[C@@H]1n1c2ccc(F)cc2c2cc(F)ccc21` (single isomer, unassigned) [Compound 43]: 910 nM; for `CC(C)(C)OC(=O)N1CC[C@@H](O)[C@H](n2c3ccc(F)cc3c3cc(F)ccc32)C1` (single isomer, unassigned) [Compound 47]: 576 nM. As for `CC(C)(C)OC(=O)N1CC[C@H](O)[C@@H](n2c3ccc(F)cc3c3cc(F)ccc32)C1` (single isomer, unassigned) [Compound 48], the IC50 was determined as 1260 nM. The same measure, in the same setting: the figure for `O[C@@H]1CCNC[C@H]1n1c2ccc(Cl)cc2c2cc(Cl)cnc21` (single isomer, unassigned) [Compound 55] is 3600 nM; for `O[C@@H]1CCNC[C@H]1n1c2ccc(Cl)cc2c2cc(Cl)ccc21` (single isomer, unassigned) [Compound 66] it is 1690 nM. On the same count and under the same terms, the figure for `O[C@@H]1CCN(CCC(F)(F)F)C[C@H]1n1c2ccc(F)cc2c2cc(F)ccc21` [Compound 45, (3R,4R)-3-(3,6-difluoro-9H-carbazol-9-yl)-1-(3,3,3-trifluoropropyl)piperidin-4-ol] is 96 nM. On to `O[C@@H]1CCN(CCCC(F)(F)F)C[C@H]1n1c2ccc(F)cc2c2cc(F)ccc21` [Compound 49, (3R,4R)-3-(3,6-difluoro-9H-carbazol-9-yl)-1-(4,4,4-trifluorobutyl)piperidin-4-ol], for which the IC50 turned out to be 33.6 nM. On the same count and under the same terms, the figure for `O[C@@H]1CCN(CC2CC2)C[C@H]1n1c2ccc(F)cc2c2cc(F)ccc21` [Compound 50, (3R,4R)-1-(cyclopropylmethyl)-3-(3,6-difluoro-9H-carbazol-9-yl)piperidin-4-ol] is 290 nM. Consider `CC(C)(C)CN1CC[C@@H](O)[C@H](n2c3ccc(F)cc3c3cc(F)ccc32)C1` [Compound 51, (3R,4R)-3-(3,6-difluoro-9H-carbazol-9-yl)-1-neopentylpiperidin-4-ol], for which the concentration for half-maximal inhibition (IC50) amounted to 555 nM. Same read-out and setting: the same measure for `O[C@@H]1CCN(CCc2ccccc2)C[C@H]1n1c2ccc(F)cc2c2cc(F)ccc21` [Compound 52, (3R,4R)-3-(3,6-difluoro-9H-carbazol-9-yl)-1-phenethylpiperidin-4-ol]: 169 nM; for `O[C@@H]1CCN(CC2(C(F)(F)F)CC2)C[C@H]1n1c2ccc(F)cc2c2cc(F)ccc21` [Compound 53, (3R,4R)-3-(3,6-difluoro-9H-carbazol-9-yl)-1-((1-(trifluoromethyl)cyclopropyl)methyl)piperidin-4-ol]: 73.6 nM; for `O[C@@H]1CCN(CCC(F)(F)F)C[C@H]1n1c2ccc(Cl)cc2c2cc(Cl)ccc21` [Compound 54, (3R,4R)-3-(3,6-dichloro-9H-carbazol-9-yl)-1-(3,3,3-trifluoropropyl)piperidin-4-ol]: 28.2 nM.

Take `O[C@@H]1CCN(CCC(F)(F)F)C[C@H]1n1c2ccc(Cl)cc2c2cc(Cl)cnc21` [Compound 57, (3R,4R)-3-(3,6-dichloro-9H-pyrido[2,3-b]-indol-9-yl)-1-(3,3,3-trifluoropropyl)piperidin-4-ol]: the IC50 stood at 2240 nM. On the same count and under the same terms, the figure for `O[C@@H]1CN(CCC(F)(F)F)CC[C@H]1n1c2ccc(Cl)cc2c2cc(Cl)cnc21` [Compound 58, (3R,4R)-4-(3,6-dichloro-9H-pyrido[2,3-b]indol-9-yl)-1-(3,3,3-trifluoropropyl)piperidin-3-ol] is 724 nM; for `O[C@@H]1CNCC[C@H]1n1c2ccc(C(F)(F)F)cc2c2cc(C(F)(F)F)ccc21` [Compound 60, (3R,4R)-4-(3,6-bis(trifluoromethyl)-9H-carbazol-9-yl)piperidin-3-ol] it is 20.5 nM. On the same count and under the same terms, the same measure for `O[C@H]1CNCC[C@@H]1n1c2ccc(C(F)(F)F)cc2c2cc(C(F)(F)F)ccc21` [Compound 61, (3S,4S)-4-(3,6-bis(trifluoromethyl)-9H-carbazol-9-yl)piperidin-3-ol]: 20.5 nM.

For another experiment, the system named is Chloroquine/Pyrimethamine resistant Plasmodium falciparum K1. The experiment can be described thus: In vitro sensitivity assay: Plasmodium falciparum by 3H-hypoxanthine incorporation. The class given is cell-based. The following applies: Erythrocyte, P. falciparum K1 strain in human red blood cells, 3H-hypoxanthine incorporation, read-out: IC50 K1 in vitro. The protocol:
Biological Test 1: In Vitro Sensitivity Assays: Plasmodium falciparum by ^3H-Hypoxanthine Incorporation.
The strain used for this assay is the Chloroquine/Pyrimethamine resistant Plasmodium falciparum K1 and drugs such as Chloroquine (10 mg/mL stock; start concentration 1000 ng/mL) and Artemisinine (Qinghaosu) (5 mg/mL stock; start concentration 10 ng/mL) were used as standards. Human red blood cells were used as host cells and the activity was measured using a ^3H-hypoxanthine incorporation assay.
Into a Costar™ 96-well microtitre plates, 100 μL of medium (RPMI 1640 without hypoxanthine 10.44 g/L, HEPES 5.94 g/L, Albumax® 5 g/L, Neomycin 10 mL/L, NaHCO3 2.1 g/L) were added to the wells of row containing drugs available from stock solutions of 10 mg/mL in DMSO (compounds were kept at −20° C. Since DMSO is toxic, care had to be taken not to exceed a final concentration of 0.5% DMSO). Then 100 μL of medium were added at rt to all wells of the plate. By means of a 12-well multi-pipette serial drug dilutions were prepared. A serial dilution factor of 1:2 is thus obtained. One row of wells without drugs served as controls. Next 100 μL of medium+washed human red blood cells A+(RBC) was added to the last 4 wells of the first row; these columns serve as background controls (that may be caused by 3H-hypoxanthine incorporation into RBC without the parasite). Into the remaining wells, 100 μL of medium+RBC+P. falciparum mix was added. The plates were placed for 48 h into a chamber at 37° C. gassed with a 4% CO2, 3% O2, 93% N2 mix. Finally 50 μL of medium+3H-hypoxanthine [(500 μL ^3H-hypoxanthine stock+500 μL EtOH+49 mL medium (0.5 μCi)] was added to each well and the plates were put back at 37° C. for 24 h into the chamber and gassed with a 4% CO2, 3% O2, 93% N2 mix. The plates were then read using the Cell Harvester and the data were transferred into a graphic program (Excel) and are evaluated to determine the IC50 by linear interpolation.
For `CC(C)(C)OC(=O)N1CC[C@H](n2c3ccc(F)cc3c3cc(Cl)ccc32)[C@@H](O)C1` (racemic) [Compound 1, trans-4-(3-Chloro-6-fluoro-carbazol-9-yl)-3-hydroxy-piperidine-1-carboxylic acid tert-butyl ester], the IC50 was 315 nM. Same read-out and setting: the same measure for `CC(C)(C)OC(=O)N1CC[C@@H](O)[C@H](n2c3ccc(F)cc3c3cc(Cl)ccc32)C1` (racemic) [Compound 2, trans-3-(3-Chloro-6-fluoro-carbazol-9-yl)-4-hydroxy-piperidine-1-carboxylic acid tert-butyl ester]: 127 nM.
